In PMC11968394, “The effect of deuterated PLK1 inhibitor on its safety and efficacy in vivo” (Frontiers in Oncology, 2025):
Where “and” joins values, the source holds several entries; their conditions need not be identical. Equal entries are not always repeated.

Key:
CLK4 = CLK4 (Homo sapiens, UniProt Q9HAZ1); test: Kinase assay CLK4; assay type: biochemical
Description: (§1) Serial dilutions in DMSO were prepared. PLK1 was serially diluted 5-fold from 10 μM, yielding concentrations from 10000 nM to 0.00512 nM. Other targets were serially diluted 3-fold from 10 μM, yielding concentrations from 10000 nM to 0.5 nM. We have used two kinase assays: HTRF assay and ADG-Glo assay.
(§2) For HTRF Assay, 2× ATP/substrate solution and 2× kinase solution were prepared in kinase reaction buffer. Using an Echo 655, 50 nL of each diluted compound was transferred to a 384-well detection plate. The plate was centrifuged at 1000 rpm for 1 minute. 2.5 μL of 2× kinase solution was added to each well. The plate was incubated at 25°C for 10 minutes. 2.5 μL of 2× ATP/substrate solution was added to each well. The plate was centrifuged at 1000 rpm for 1 minute. The plate was incubated at 25°C for 40 minutes. 2× XL665 and antibody detection reagent were prepared in detection buffer. 5 μL of the prepared kinase detection reagent was added to each well. The plate was centrifuged at 1000 rpm for 1 minute. The plate was incubated at 25°C for 1 hour. Fluorescence signals at 620 nm (Cryptate) and 665 nm (XL665) were measured using a multifunction plate reader.
(§3) For ADP-Glo Assay, 2× ATP/substrate solution and 2× kinase solution were prepared in kinase reaction buffer. […] Luminescence signals were measured using a multifunction plate reader.

Sprague-Dawley rats = test: Sprague-Dawley rat repeated administration toxicity study; conditions: for Death / survival after 9-day dosing: Sprague-Dawley rats, oral 15 mg/kg once a day, n=3; for Rats survived at day 14: female, Sprague-Dawley, po, 14 days
Description: Rat toxicity was studied at JOINN Laboratories (Suzhou, Jiangsu, China). […] […] […] Using 2 mL sterile syringes and gavage tubes, animals were dosed based on their most recent body weight, with volumes rounded to one decimal place. Test compounds were stirred continuously for at least 15 minutes before and during administration. The rats were dosed once a day for 14 days.

[1] = test system: p-TCTP, a direct substrate of PLK1; test: Pharmacodynamics: phospho-Ser46 TCTP in PSN-1 xenograft tumors (Western blot); assay type: in vivo, M-NSG mice; conditions: 2 hours after single oral dose (60, 30, 15 mg/kg)
Description: (§4) For in vivo PK/PD studies, a PSN1 tumor model was established in female M-NSG (NOD.Cg-Prkdc^scidIl2rg^em1Smoc ) mice, which are severely immunodeficient mice lacking the interleukin 2 receptor gamma chain on a NOD.Cg-Prkdc^scid background, at Shanghai Model Organisms (Shanghai, China). Briefly, 5 × 10^6 PSN1 cells were inoculated subcutaneously into each M-NSG mouse. Once the tumors reached approximately 500 mm³, compounds were administered orally at various dosages. For PK studies, blood samples were collected at 0, 0.25, 0.5, 1, 2, 6, and 24 hours post-dose. The sera from blood were then obtained and stored at -70°C. For PD studies, tumors were harvested 2 hours after dosing and stored at -70°C.The serum and tumor samples were then transported to PRECEDO (Hefei, Anhui, China) for further PK/PD studies.
For PD study, tumor tissues (~30 mg) were homogenized in 350 µL Lysis Buffer. After centrifugation, protein concentration in supernatants was determined by BCA assay. Samples were prepared for SDS-PAGE and run on 10% gels. Proteins were transferred to PVDF membranes, blocked, and incubated with anti-Phospho-TCTP (Ser46) Antibody (Cell Signaling Technology, Danvers, MA, USA) (1:1,000) overnight at 4°C. After washing, membranes were incubated with HRP-anti-Rabbit IgG (Cell Signaling Technology, Danvers, MA, USA) (1:3,000) for 1 hour, then treated with ECL reagents for imaging.

PSN-1 CDX model = test: PSN-1 CDX model, tumor growth inhibition after 4-day dosing; assay type: in vivo, M-NSG mice; conditions: for TGI / Tumor volume Day 4: 4-day dosing; for Tumor volume Day 0: baseline
Description: as §4
(§5) TGI was calculated as follows.

BxPC-3 CDX model = test: BxPC-3 CDX model; assay type: in vivo, NOD SCID mouse; conditions: for Mice died: NOD SCID, 60 mg/kg, 6 mice/group, 10 days
Description: These studies were performed at Yikon Medical (Beijing, China). Cancer cell line HCT 116 or BxPC-3 were cultured in 10% FBS RPMI-1640 medium plus penicillin, streptomycin, and glutamine at 37°C and 5% CO2 until reaching confluency. Cells were then prepared for inoculation. 5×10⁷ cells/mL cells in 100 µL were inoculated subcutaneously into the right flank of each female BALB/c nude mouse for HCT 116 cell line or female NOD SCID mouse for BxPC-3 cell line. When tumors reached 100-150 mm³, mice were divided into 4-5 groups (6-7 mice/group). […] Mice were dosed at least 10 days and were monitored for 30 days.
as §5

TSSK1 = TSSK1 (Homo sapiens, UniProt Q9BXA7); test: Kinase assay TSSK1; assay type: biochemical
Description: as §1, §2, §3

Chain of TSSK1 (Q9BXA7 whole entry, species assumed): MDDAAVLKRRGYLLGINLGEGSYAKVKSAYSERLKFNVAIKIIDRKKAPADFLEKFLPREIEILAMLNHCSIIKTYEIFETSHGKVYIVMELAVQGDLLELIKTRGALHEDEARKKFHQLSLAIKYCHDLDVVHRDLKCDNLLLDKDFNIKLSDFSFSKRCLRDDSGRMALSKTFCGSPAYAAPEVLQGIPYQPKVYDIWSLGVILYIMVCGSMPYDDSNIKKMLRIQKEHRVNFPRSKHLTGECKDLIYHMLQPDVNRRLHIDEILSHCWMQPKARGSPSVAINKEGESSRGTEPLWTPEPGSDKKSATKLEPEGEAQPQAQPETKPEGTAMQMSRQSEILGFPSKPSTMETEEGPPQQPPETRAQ
Chain of CLK4 (Q9HAZ1 whole entry, species assumed): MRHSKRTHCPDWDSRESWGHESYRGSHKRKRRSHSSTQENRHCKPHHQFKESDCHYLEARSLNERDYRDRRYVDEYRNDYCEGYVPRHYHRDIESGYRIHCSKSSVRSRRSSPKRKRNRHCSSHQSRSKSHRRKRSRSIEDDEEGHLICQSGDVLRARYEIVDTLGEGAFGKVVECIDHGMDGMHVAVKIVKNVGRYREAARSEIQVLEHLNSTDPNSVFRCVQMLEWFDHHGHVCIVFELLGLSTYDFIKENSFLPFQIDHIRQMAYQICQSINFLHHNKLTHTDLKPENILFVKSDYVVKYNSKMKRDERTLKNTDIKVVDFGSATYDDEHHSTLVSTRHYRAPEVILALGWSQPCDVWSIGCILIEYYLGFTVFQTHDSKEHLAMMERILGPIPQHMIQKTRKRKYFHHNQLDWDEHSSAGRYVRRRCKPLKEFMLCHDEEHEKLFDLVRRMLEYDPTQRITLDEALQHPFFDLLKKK

Structure (SMILES) | IC50 (CLK4) [nM] | Death / survival after 9-day dosing (Sprague-Dawley rats; 15 mg/kg) | Rats survived at day 14 (Sprague-Dawley rats; rat, in vivo, 15 mg/kg) | p-TCTP signal in tumors [1] | TGI (PSN-1 CDX model; 15 mg/kg) [%] | Tumor volume Day 4 (PSN-1 CDX model; 15 mg/kg) [mm^3] | Tumor volume Day 0 (PSN-1 CDX model; 15 mg/kg) [mm^3] | TGI (PSN-1 CDX model; 30 mg/kg) [%] | Tumor volume Day 4 (PSN-1 CDX model; 30 mg/kg) [mm^3] | Tumor volume Day 0 (PSN-1 CDX model; 30 mg/kg) [mm^3] | TGI (PSN-1 CDX model; 60 mg/kg) [%] | Tumor volume Day 4 (PSN-1 CDX model; 60 mg/kg) [mm^3] | Tumor volume Day 0 (PSN-1 CDX model; 60 mg/kg) [mm^3] | Body weight (BxPC-3 CDX model; NOD SCID mice) | Mice died (BxPC-3 CDX model) | Mice died (BxPC-3 CDX model; listed as NMP-P937, 60 mg/kg) | IC50 (TSSK1) [nM] | Death / survival after 9-day dosing (Sprague-Dawley rats) | Tolerability (Sprague-Dawley rats; rat, in vivo, 10 mg/kg) | Tumor growth (BxPC-3 CDX model; NOD SCID mice)
CN1CCN(c2ccc(OC(F)(F)F)c(Nc3ncc4c(n3)-c3c(c(C(N)=O)nn3CCO)CC4)c2)CC1 [NMS-P937] | 278 | 1 out of 3 rats treated with NMS-P937 died and Death of 1/3 rat | 2/3 | reduced p-TCTP signal | 51.3 | 166.43 ± 5.79 | 119.66 ± 1.67 | 68.1 | 149.94 ± 4.21 | 119.38 ± 2.09 | 81.2 | 137.49 ± 5.16 | 119.42 ± 2.14 | dramatically reduced body weight | two mice died | 2/6 | 77.8 |  |  | 
[2H]C1([2H])N(C)C([2H])([2H])C([2H])([2H])N(c2ccc(OC(F)(F)F)c(Nc3ncc4c(n3)-c3c(c(C(N)=O)nn3CCO)CC4)c2)C1([2H])[2H] [PR00012] | 231 |  | 3/3 | reduced p-TCTP signal | 55.5 | 162.12 ± 4.11 | 119.44 ± 1.78 | 75.0 | 143.49 ± 5.64 | 119.48 ± 1.95 | 91.2 | 127.93 ± 1.60 | 119.48 ± 1.72 |  | one mouse died and 1/6 |  | 53.2 | all three rats treated with PR00012 survived | the rats were still tolerable | tumor growth inhibition in a dose-dependent manner
